Reference: a melting point compilation (Tetko et al.; mined from patent text by program, amines drawn as free bases though some values may be those of a salt)

SMILES | melting point
Cc1cccc2c1N(CC(=O)N1CC3CCC(CC3)C1)C(=O)C(NC(=O)Nc1cccc(Cl)c1)N=C2c1ccccc1F (stereo unspecified) | > 250 °C
CCOC(=O)C1=C(C)NC(C)=C(C(=O)OCC)C1c1ccccc1/C=C(\C)C(=O)OCC | 105 to 106 °C
O=C(CCn1cnc2c(=O)[nH]cnc21)Nc1ccc(C(=O)O)cc1 | 319 to 321 °C
CN(C)C(=O)CCC(=O)NC1CCC(CCN2CCN(c3nccc4c3CCO4)CC2)CC1 (stereo unspecified) | 188 °C
Cc1ccc(OC(=O)CCCC(=O)OOC(=O)CCCC(=O)Oc2ccc(C)cc2)cc1 | 24 to 30 °C
O=Cc1ccc(N(CCO)CCO)cc1 | 63 to 64 °C
COC(=O)Cc1nc(-c2ccc(C)cc2)oc1C | 59 to 60 °C
O=C(c1cccs1)c1cnn2c(Cl)ccnc12 | 148 to 150 °C
CCC(=O)Nc1nc2ccc(Cl)cc2n2c(CC)nnc12 | 212 to 215 °C
COc1ccc(CC(=O)CCCCCBr)cc1 | 41 to 43 °C
Oc1nc(Cc2ccc(F)cc2)ncc1F | 169 to 170 °C
N#Cc1ccc([C@H]2[C@@H]3C(=O)N(Cc4ccc5c(c4)OCO5)C(=O)[C@@H]3[C@@H]3CSCN32)cc1 (racemic) | 142 to 143 °C
CNC(=O)c1[nH]c(C(C)(C)C)cc1NC(=O)Nc1ccc(C)cc1 | 164 to 166 °C
CCCCCCCC(CC(=O)OO)CC(=O)OO | 19 to 22 °C
CC(C)(C(O)c1ccc(Br)cc1)n1ncn(-c2ccc(N3CCN(c4ccc(O)cc4)CC3)cc2)c1=O (stereo unspecified) | 224 °C
COC(=O)C(C)Oc1ccc(NC(=O)CCCCCO)cc1 (stereo unspecified) | 62 to 64.5 °C
CCOC(=O)C(C)O/N=C(\C(=O)O)c1csc(N)n1 (stereo unspecified) | 166 °C
CC(=Cc1ccc(F)cc1F)C(=O)O | 126 to 128 °C
CCC(=O)C(CCCCCCOc1ccc(S(N)(=O)=O)cc1)C(=O)CC | 86 to 87 °C
O=c1[nH]c2cc(Cl)ccc2c(=O)c(-c2ccc([N+](=O)[O-])cc2)c1O | 310 to 312 °C

SMILES | melting point
CN(C)S(=O)(=O)CCc1ccc2[nH]cc(CC#N)c2c1 | 105 to 107 °C
O=C(O)[C@@H]1CCC(=O)N1C(=O)CCC1CCCC1 | 135 to 138 °C
O=C(Nc1cc(OCCCON=Cc2ccc(-c3ccccc3)cc2)ccc1C(=O)O)c1ccc(C(F)(F)F)cc1 | 206 to 207 °C
CCOC(=O)c1ccc(-c2ccc(-c3ccc(C(F)(F)F)cc3)n2C)cc1 | 150 to 151 °C
CC1(C)OC(=S)Nc2ccc(-c3cccc(F)c3F)cc21 | 197 to 198 °C
C#CCn1c(-c2ccccc2)nc(C(=O)N(C)C)c(C)c1=O | 137 to 140 °C
O=C1CCC2(CCCc3ccccc32)CC1 | 109 to 111 °C
CCc1cccc(CC)c1NCc1n[nH]c(=S)n1C | 117 to 121 °C
S=C1CN=C(c2ccccc2Cl)c2ccccc2N1 | 228 to 229 °C
CN(C)C(=O)c1nn(-c2ccncc2)c(=O)c2c1c1ccc(Cl)cc1n2C | 276 to 278 °C
CCOC(=O)C(=O)c1cc(C)c(C(=O)c2ccccc2[N+](=O)[O-])n1C | 138 to 140 °C
CCOc1cc2cc(CO)nc(-c3ccnc(-n4nc(-c5cc(OC)c(OC)c(OC)c5)c5sccc5c4=O)c3)c2cc1OCC | 250 to 251 °C
Nc1c(F)c(N2CCC(c3ccncc3)C2)c(F)c2c1c(=O)c(C(=O)O)cn2C1CC1 (stereo unspecified) | 236 to 238 °C
Cn1cccc1C1=CC(=O)c2nccnc2C1=O | 161 to 162 °C
O=C(CCCCC(=O)c1ccc(F)cc1)c1ccc(F)cc1 | 165 to 167 °C
CS(=O)(=O)Cc1cc(Br)ccc1C(=O)c1cnoc1C1CC1 | 154 °C
CNc1nc2ccccc2n1CCO | > 200 °C
Cc1nc2n(C)ccn2c(=O)c1CCCl | 198 °C
C=CCN1C(=O)N(c2ccc([N+](=O)[O-])c(C(F)(F)F)c2)C(=O)C1(C)C | 105 °C
CC(C)(C)c1ccc(C(=O)NCc2ccc3c(c2)CN(C2CCC(=O)NC2=O)C3=O)cc1 (stereo unspecified) | 238 to 240 °C

Continued, values first:

melting point | SMILES
130 to 132 °C | CCCCc1nc2cccc(CCO)c2n1Cc1ccccc1Cl
220 to 222 °C | COc1cc(C(C)C#Cc2cnc(N)nc2N)cc(OC)c1OC (stereo unspecified)
157 to 158 °C | CCc1noc(=O)c2ccc(NC(=O)C(=O)CC(C)(C)c3cc(F)ccc3OC)cc12
105 to 107 °C | COc1ccc(-c2cnc(-c3ccncc3)o2)cc1
148 to 150 °C | COc1ccc(-c2[nH]cnc2-c2cc(OC)c(O)c(OC)c2)cc1N
98 °C | Cc1cc(-n2ccnc2)c2cccc(OCc3c(Cl)ccc(S(=O)(=O)N4CCC[C@H]4C(=O)N(C)CCN(C)C)c3Cl)c2n1
196 °C | O=C1CN(c2ccccc2)C(=O)N1C1CCCCC1
234 to 235 °C | CCn1nc2c(N)nc3ccccc3c2c1CC(C)(C)N
139 to 140 °C | Nc1cccc(C#CCCN2CCC(O)(c3ccc(Cl)cc3)CC2)c1
91 °C | CCOC(=O)C1C(=O)C=C(c2ccc(OCC(=O)O)c(Cl)c2Cl)CC1c1ccccc1 (stereo unspecified)
163 to 164 °C | CSc1nccc(C(C#N)C(=O)c2ccccc2)n1 (stereo unspecified)
285 to 287 °C | CCCCc1oc2ccccc2c1-c1ncc(-c2ccc3cc(OCc4ccc(C(=O)O)cc4C(=O)O)ccc3c2)o1
94 to 96 °C | CCc1cnc(CC(C#Cc2ccccc2)c2ccc(OC)c(OC3CCCC3)c2)o1 (racemic)
191 to 193 °C | COc1cccc(OC)c1C(=O)Nc1nc[nH]n1
167 to 170 °C | COc1ccc(CNc2nc(SC)nc(OC)c2C(=O)O)cc1Cl
77 to 79 °C | COCOc1ccc2c(c1)OC(C)(C)CC2=O

melting point | SMILES
136 to 138 °C | CCc1cc(NCc2ccc(-c3ccccc3-c3nnn[nH]3)cc2)n2ncc(Cl)c2n1
139 to 141 °C | CC(=O)c1cc(Cc2ccccc2)c(O)c2ccccc12
> 300 °C | N#Cc1ccc(C(=O)N2CCc3[nH]c4c(cnc5cc(Cl)ccc54)c3C2)cc1
114 to 115 °C | O=C(O)C=Cc1cccc(CCc2nc(-c3ccccc3)c(-c3ccccc3)o2)c1
78 to 82 °C | O=C(O)C(Cc1ccccc1)Oc1ccc2cc(-c3cnc(Cc4ccccc4)o3)ccc2c1 (stereo unspecified)
105 to 107 °C | Cc1nccn1-c1cccc(-n2cnc3cc(-c4ccoc4)ccc32)c1
93 to 94 °C | Cc1oc(-c2ccccc2)nc1CCOc1ccc(CC(Br)C#N)cn1 (stereo unspecified)
145 °C | CC(C)(C)OC(=O)NCCCCCCNC(=O)c1cccc(-c2nc(=O)c3ccccc3s2)n1
196 to 197 °C | O=C(Nc1ccc(Oc2ccnc(N3CCC3)n2)c2ccccc12)c1cc(F)cc(N2CCOCC2)c1
217 to 218 °C | O=C(Nc1ccc(C(=O)N2CCCc3ccccc32)cc1)c1cccc(O)c1
221 °C | COc1cc(Cc2cnc(N3C(=O)c4ccccc4C3=O)nc2N)cc(OC)c1OC
77 to 78 °C | CC1C(=O)N(c2ccccc2)c2ccccc21 (stereo unspecified)
220 to 222 °C | Cc1cccc(C(N)=O)c1Nc1nc(Nc2ccc3c(c2)C(C)(C)CCC(=O)N3)ncc1Cl
118 to 119 °C | Cc1ccc(Oc2ccccc2C#N)c(O)c1
139 to 140 °C | O=C(N[C@@H](Cc1ccccc1)C(=O)Oc1cc(Cl)c(Cl)cc1Cl)OCc1ccccc1
